{
  "source": "patent US7199286B2",
  "about": "“Plant-derived novel pathogen and SAR-induction chemical induced promoters, and fragments thereof” (Syngenta Participations AG, priority 1999, dated 2007)",
  "system": "Arabidopsis PR1 promoter",
  "assay": "GUS florescence assay of promoter::GUS plants after SA application, Arabidopsis PR1 promoter",
  "type": "in vivo",
  "conditions": "5 mM SA spray",
  "excerpt": "A binary promoter::reporter plasmid (pNOV2374) for Arabidopsis transformation was constructed. The regulatory/promoter sequence was fused to the GUS reporter gene (Jefferson et al. (1987) EMBO J 6: 3901-3907) by recombination using […] Technology according to the manufacturer's protocol as described in the Instruction Manual (LifeTechnologies, Rockville, Md.). The construct was then transformed into Agrobacterium tumefaciens strains by electroporation. pNOV2374 is a binary vector with a VS1 origin of replication, a copy of the Agrobacterium virg gene in the backbone, and a Basta® resistance selectable marker cassette between the left and right border sequences of the T-DNA. The Basta® selectable marker cassette comprises the Agrobacterium tumefaciens manopine synthase promoter (AtMas) (Barker et al., Plant Mol. Biol. 2, 335-350 (1983)) operably linked to the gene encoding Basta® resistance (i.e., the “BAR” gene, phosphinothricin acetyl transferase) (White et al., Nucl Acids Res 18: 1062 (1990)) and the 35S terminator. The AtMas promoter, the BAR coding sequence, and the 35S terminator are located at nt 4211 to nt 4679, nt 4680 to nt 5228, and nt 5263 to nt 5488, respectively, of pNOV2374. The vector contains […] recombination components, which were introduced into the binary vector backbone by ligating a blunt-ended cassette containing attR sites, ccdB, and a cholramphenicol resistance marker using the […] Vector Conversion System (LifeTechnologies, Rockville, Md.). The […] cassette was located between nt 126 and 1818 of pNOV2374. The promoter cassettes were inserted through an LR recombination reaction whereby the DNA sequence of pNOV2374 between nt 126 and nt 1818 were removed and replaced with the promoter of interest flanked by att sequences. […] The GIG gene (SEQ ID NO:29) contains the ST-LS1 intron from Solanum tuberosum at nt 385 to nt 576 of GUS (obtained from Dr. Stanton […], Purdue University, and described in Narasimhulu, et al. (1996) Plant Cell 8: 873-886.). The orientation of the selectable marker and promoter-reporter cassettes in the binary vector construct was as follows: For the purpose of comparing promoter activity, additional constructs were produced with the known Arabidopsis PR1 (SEQ ID NO:30) and SMAS (SEQ ID NO:31) promoters (see Plant J. 16 (2) 223-233 (1998) and Plant Mol. Biol. 20 (2) 219-233 (1992), respectively) operatively linked to the GIG gene (SEQ ID NO:29) and the […]. […] The treatment was applied as a fine mist to the leaves. […] For quantitative analysis of promoter activity following induction treatments or in various Arabidopsis tissues and organs, GUS expression is measured florometrically. Tissue samples were harvested and ground in ice cold GUS extraction buffer (50 mM Na2HPO4 pH 7.0, 5 mM DTT, 1 mM Na2EDTA, 0.1% TritonX100, 0.1% sarcosyl). Ground samples were spun in a microfuge at 10,000 rpm for 15 minutes at 4° C. Following centrifugation, the supernatant was removed for the GUS assay and for a protein concentration determination. To measure GUS activity, the plant extract was assayed in GUS assay buffer (50 mM Na2HPO4 pH 7.0, 5 mM DTT, 1 mM Na2EDTA, 0.1% TritonX100, 0.1% sarcosyl, 1 mM 4-Methylumbelliferyl-beta-D-glucuronic acid dihydrate (MUG)), pre-warmed to 37° C. Reactions were incubated, and 100 uL aliquots were removed at 10 minute intervals over 30 minutes to stop the reaction by adding the 100 uL aliquots to tubes containing 900 uL of 2% Na2CO3. The stopped reactions were then read on a Tecan Spectroflourometer at 365 nm excitation and 455 emission wavelengths. Protein concentrations were determined using the BCA assay following the manufacturer's protocol. GUS activity is expressed as pmol MU/mg protein/min.",
  "data": [
    {"smiles": "O=C(O)c1ccccc1O", "note": "[SA, salicylic acid]", "values": [
      {"measurement": "GUS Activity Induced by SA", "setting": "2 h", "result": 57.7, "unit": "pmol/mg protein/min"},
      {"measurement": "GUS activity Fold-change relative to T0 (uninduced)", "setting": "2 h", "result": 3.4, "unit": "fold"},
      {"measurement": "GUS Activity Induced by SA", "setting": "4 h", "result": 254.7, "unit": "pmol/mg protein/min"},
      {"measurement": "GUS activity Fold-change relative to T0 (uninduced)", "setting": "4 h", "result": 15.2, "unit": "fold"},
      {"measurement": "GUS Activity Induced by SA", "setting": "8 h", "result": 206.5, "unit": "pmol/mg protein/min"},
      {"measurement": "GUS Activity Induced by SA", "setting": "24 h", "result": 393.1, "unit": "pmol/mg protein/min"},
      {"measurement": "GUS activity Fold-change relative to T0 (uninduced)", "setting": "24 h", "result": 23.4, "unit": "fold"}
    ]}
  ]
}
